From US11834414B2, “1-methyl-4-[(4-phenylphenyl)sulfonylmethyl]cyclohexyanol and 1-methyl-4-[[4-(2-pyridyl)phenyl]sulfonylmethyl]cyclohexanol compounds and their therapeutic use” (Modern Biosciences Limited, priority 2018, dated 2023)
pIC50: −log10 of the molar value.

Key:
[1] = test system: Thp1 human monocytic cells; assay: Thp1 Monocyte ATP Production Assay; format: cell-based; settings: for pIC50: Homo sapiens, THP-1, 24 h, Thp1 cells, 24 hour incubation, ATPLite, 9-point range 10 μM to 10 nM, mean of 2 independent experiments
Outline: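 Cells plated at 112500/well in glucose-free RPMI-1640 with 1% FBS and exposed to compound for 24 h at 37 °C/5% CO2. ATP quantified by luciferase luminescence (ATPlite) and expressed as % of control viability. IC50 from 4-parameter fit, mean of two experiments.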

Rat hepatocyte stability = format: in vitro ADME; settings: rat, pooled rat hepatocytes, 60 minute incubation; for hepatocyte CLint at 1 μM: read-out: Rat Clint (μL/min/million cells); for half-life at 1 μM: read-out: Rat t1/2
Outline: (§1)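 Compounds (1 μM final, 0.1% DMSO, 0.9% acetonitrile) were incubated in duplicate with pooled rat or human hepatocytes at 37° C, sampled at 0–60 min and quenched with methanol. Remaining parent was measured by LC-MS/MS. Elimination rate constant came from the ln(concentration)–time slope, giving t1/2 and CLint scaled to hepatocyte concentration.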

[2] = Human hepatocyte stability; format: in vitro ADME; settings: human, pooled human hepatocytes, human hepatocytes, 1 μM, 60 minute incubation; for hepatocyte CLint at 1 μM: read-out: Human Clint (uL/min/million cells); for half-life at 1 μM: read-out: Human t1/2
Outline: as §1

human hepatocytes = assay: Human hepatocyte stability; format: in vitro ADME; settings: hepatocyte stability, compared to the reference compounds
Outline: as §1

CYP2C9 = CYP2C9 (Homo sapiens (Human), UniProt P11712); assay: Human Cytochrome P450 Inhibition Assay (Bactosomes); format: in vitro ADME; settings: recombinant Bactosomes, 10 minutes, 37° C.
CYP2C9, sequence (P11712 whole entry): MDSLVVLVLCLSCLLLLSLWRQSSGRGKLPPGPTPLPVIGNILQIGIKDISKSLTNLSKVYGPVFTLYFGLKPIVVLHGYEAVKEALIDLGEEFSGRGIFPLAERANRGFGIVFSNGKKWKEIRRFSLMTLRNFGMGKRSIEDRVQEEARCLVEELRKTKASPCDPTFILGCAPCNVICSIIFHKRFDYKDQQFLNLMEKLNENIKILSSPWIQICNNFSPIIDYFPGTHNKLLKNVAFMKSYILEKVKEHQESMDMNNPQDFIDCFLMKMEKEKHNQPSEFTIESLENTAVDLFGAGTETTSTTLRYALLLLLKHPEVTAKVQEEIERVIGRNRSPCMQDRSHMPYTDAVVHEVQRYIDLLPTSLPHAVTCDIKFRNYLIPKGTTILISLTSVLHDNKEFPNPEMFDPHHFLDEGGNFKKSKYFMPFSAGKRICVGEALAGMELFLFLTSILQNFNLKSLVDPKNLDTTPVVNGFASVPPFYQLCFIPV

CYP2C19 = CYP2C19 (Homo sapiens (Human), UniProt P33261); assay: as above; format: in vitro ADME; settings: recombinant Bactosomes, 10 minutes, 37° C.
CYP2C19, sequence (P33261 whole entry): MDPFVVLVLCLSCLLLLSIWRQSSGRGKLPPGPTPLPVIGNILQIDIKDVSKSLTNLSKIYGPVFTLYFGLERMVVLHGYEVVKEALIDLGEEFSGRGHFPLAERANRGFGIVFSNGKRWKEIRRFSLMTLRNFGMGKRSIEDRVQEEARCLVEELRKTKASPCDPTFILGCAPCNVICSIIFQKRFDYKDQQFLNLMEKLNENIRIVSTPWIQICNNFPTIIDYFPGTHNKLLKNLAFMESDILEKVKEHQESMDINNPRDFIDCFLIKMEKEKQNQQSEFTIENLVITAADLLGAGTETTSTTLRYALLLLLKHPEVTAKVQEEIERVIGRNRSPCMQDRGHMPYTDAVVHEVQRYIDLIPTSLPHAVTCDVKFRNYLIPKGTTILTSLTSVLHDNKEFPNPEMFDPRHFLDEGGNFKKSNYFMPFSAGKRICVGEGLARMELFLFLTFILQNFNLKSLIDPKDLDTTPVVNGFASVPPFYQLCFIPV

CYP1A2 = CYP1A2 (Homo sapiens (Human), UniProt P05177); assay: as above
CYP1A2, sequence (P05177 whole entry): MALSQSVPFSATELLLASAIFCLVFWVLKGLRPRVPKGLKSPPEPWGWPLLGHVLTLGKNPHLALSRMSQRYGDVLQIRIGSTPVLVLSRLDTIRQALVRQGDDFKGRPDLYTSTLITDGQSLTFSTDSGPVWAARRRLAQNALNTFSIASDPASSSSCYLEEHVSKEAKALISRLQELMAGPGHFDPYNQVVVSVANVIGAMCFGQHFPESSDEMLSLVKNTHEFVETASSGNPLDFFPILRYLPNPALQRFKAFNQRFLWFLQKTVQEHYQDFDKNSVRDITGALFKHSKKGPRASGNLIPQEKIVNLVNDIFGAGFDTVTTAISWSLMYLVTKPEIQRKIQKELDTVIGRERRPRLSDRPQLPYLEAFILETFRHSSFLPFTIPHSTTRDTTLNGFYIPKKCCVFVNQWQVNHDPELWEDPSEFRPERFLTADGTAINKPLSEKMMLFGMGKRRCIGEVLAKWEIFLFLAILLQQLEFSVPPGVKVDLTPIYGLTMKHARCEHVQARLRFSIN

[3] = test system: collagen-induced arthritis in DBA/1j mice; assay: Mouse Collagen-Induced Arthritis; format: in vivo; settings: 10 mg/kg/day, once daily for 14 days, arthritic index vs control
Procedure: Seven- to eight-week-old male DBA/1j mice were used for all procedures. Animals were housed in groups of 10, and were maintained at 21° C.±2° C. on a 12-hour light/dark cycle with food and water ad libitum. Complete Freund's adjuvant (CFA) was prepared by emulsifying bovine type II collagen at 4 mg/mL with a 4 mg/mL suspension of Mycobacterium tuberculosis H37Ra in Incomplete Freund's Adjuvant (IFA) (0.85 mL paraffin oil and 0.15 mL mannide monooleate) in a 1:1 (v/v) ratio. All mice were immunised subcutaneously with 200 μg of bovine type II collagen in CFA. 21 days later, all mice were immunised subcutaneously with 100 μg of bovine type II collagen in IFA. The mice started to develop signs and symptoms of arthritis following the ‘booster’ immunisation.
For macroscopic assessment of arthritis, the following signs were monitored in each paw of each mouse three times per week and summed to generate the Arthritic Index (AI) (the maximum AI for one animal is 16): • 0=no visible effects of arthritis. • 1=oedema and/or erythema of 1 digit. • 2=oedema and/or erythema of 2 digits. • 3=oedema and/or erythema of more than 2 digits. • 4=severe arthritis of entire paw and digits.
Animals were sorted into treatment groups with a mean arthritic index of 2.5 and then dosed once daily for 14 days with compound: by oral gavage for test compounds, or by subcutaneous injection at a dose of 10 mg/kg for the positive control, etanercept. After completion of the experiment, the mice were sacrificed.
The data were analysed by generating an average of the arthritic index across each treatment group. The mean arthritic index was then compared to the arthritic index of control (untreated) animals using the following formula to generate a percentage inhibition of disease.

Row | SMILES | pIC50 [1] | potency in the Thp1 monocytic ATP assay (in words) ([1]; compared to the reference compounds) | hepatocyte CLint at 1 μM (Rat hepatocyte stability) [µL/min/1e6 cells] | half-life at 1 μM (Rat hepatocyte stability) [h] | hepatocyte CLint at 1 μM [2] [µL/min/1e6 cells] | half-life at 1 μM [2] [h] | metabolic stability (in words) (human hepatocytes) | pIC50 (CYP2C9) | pIC50 (CYP2C19) | pIC50 (CYP1A2) | % inhibition of disease [3] [%]
1 | C[C@]1(O)CC[C@@H](CS(=O)(=O)c2ccc(-c3ccc(C#N)cc3F)cc2C(F)(F)F)CC1 [CHMSA-02-A, 2-fluoro-4′-(((cis-4-hydroxy-4-methylcyclohexyl)methyl)sulfonyl)-3′-(trifluoromethyl)-[1,1′-biphenyl]-4-carbonitrile] | 7.00 | excellent potency | 102 | 0.217 | < 3.3 | > 6.87 | exceptionally good stability | < 4.30 | < 4.30 | < 4.30 | –
2 | C[C@]1(O)CC[C@@H](CS(=O)(=O)c2ccc(-c3ncc(F)cc3F)c(F)c2)CC1 [CHMSA-03-A, cis-4-(((4-(3,5-difluoropyridin-2-yl)-3-fluorophenyl)sulfonyl)methyl)-1-methylcyclohexan-1-ol] | 6.15 | – | 14.4 | 1.52 | < 3 | > 7.67 | exceptionally good stability | 4.83 | < 4.30 | < 4.30 | 62
3 | C[C@]1(O)CC[C@H](NS(=O)(=O)c2ccc(-c3ccc(Cl)cc3C#N)cc2)CC1 [HMC-C-01-A, reference compound] | 6.20 | – | 188 | 0.117 | 7.6 | 2.57 | – | 4.68 | < 4.60 | 4.60 | 40
4 | C[C@]1(O)CC[C@@H](CS(=O)(=O)c2ccc(-c3ccc(C#N)cc3F)cc2)CC1 [CHMSA-01-A, 2-fluoro-4′-(((cis-4-hydroxy-4-methylcyclohexyl)methyl)sulfonyl)-[1,1′-biphenyl]-4-carbonitrile] | 6.15 | – | 12.4 | 1.77 | 3.7 | 5.91 | – | 4.40 | < 4.30 | < 4.30 | 63
